Positions count from the first letter of the chain named.
Tests used:
[1] = biological target: T1, Type-1 angiotensin II receptor (Oryctolagus cuniculus, UniProt P34976); test: biochemical
T1 sequence (P34976 whole entry): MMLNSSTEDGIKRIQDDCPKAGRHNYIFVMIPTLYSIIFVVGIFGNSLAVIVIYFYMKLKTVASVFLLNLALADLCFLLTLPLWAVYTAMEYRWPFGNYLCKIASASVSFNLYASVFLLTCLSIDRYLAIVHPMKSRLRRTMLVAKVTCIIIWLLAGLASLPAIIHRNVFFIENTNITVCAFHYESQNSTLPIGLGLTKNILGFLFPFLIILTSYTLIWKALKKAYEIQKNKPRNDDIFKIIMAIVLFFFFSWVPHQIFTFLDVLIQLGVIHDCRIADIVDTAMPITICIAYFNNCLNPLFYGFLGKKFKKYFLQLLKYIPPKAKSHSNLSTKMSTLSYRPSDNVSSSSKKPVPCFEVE
Description: Binding affinity against AT1 receptor in rabbit aorta

Rattus norvegicus [2] = species on record: Rattus norvegicus; conditions: dose 1 mg/kg; route intravenous
Rattus norvegicus [3] = species on record: Rattus norvegicus; conditions: dose 1 mg/kg; route oral
physchem = conditions: octanol/water
Description: Partition coefficient (logP)

[4] = biological target: Angiotensin II receptor (Rattus norvegicus) (UniProt P29089+P25095+P35351); test: Ratio of receptor binding affinity AT2/AT1 in rat adrenal tissue
[5] = biological target: Angiotensin II receptor (Homo sapiens) (UniProt P30556+P50052); test: Ratio of receptor binding affinity AT2/AT1 in human adrenal tissue in th+e presence of 2 mg/ml bovine serum albumin; assay type: protein assay
[6] = Bioavailability in dog (dose of 1.0 mg/kg i.v.) 0.5 hr; assay type: ADME, organism-based, Canis lupus familiaris; conditions: in vivo, iv
[7] = biological target: T2, Angiotensin II receptor (AT-1) type-1 (Rattus norvegicus, UniProt P29089+P25095); test: Binding affinity against AT1 receptor in rat adrenal tissue; assay type: tissue-based
T2 sequence (P29089 whole entry): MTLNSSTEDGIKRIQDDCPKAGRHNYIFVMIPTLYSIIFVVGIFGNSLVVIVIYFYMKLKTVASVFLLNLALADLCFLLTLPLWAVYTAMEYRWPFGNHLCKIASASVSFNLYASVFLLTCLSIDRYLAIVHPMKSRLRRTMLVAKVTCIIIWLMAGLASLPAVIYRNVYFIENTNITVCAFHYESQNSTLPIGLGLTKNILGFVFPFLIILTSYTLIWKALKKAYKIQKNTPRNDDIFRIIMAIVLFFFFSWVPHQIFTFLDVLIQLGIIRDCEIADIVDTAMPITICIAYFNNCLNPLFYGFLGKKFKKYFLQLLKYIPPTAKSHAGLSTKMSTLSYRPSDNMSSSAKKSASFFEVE
T2 sequence (P25095 whole entry): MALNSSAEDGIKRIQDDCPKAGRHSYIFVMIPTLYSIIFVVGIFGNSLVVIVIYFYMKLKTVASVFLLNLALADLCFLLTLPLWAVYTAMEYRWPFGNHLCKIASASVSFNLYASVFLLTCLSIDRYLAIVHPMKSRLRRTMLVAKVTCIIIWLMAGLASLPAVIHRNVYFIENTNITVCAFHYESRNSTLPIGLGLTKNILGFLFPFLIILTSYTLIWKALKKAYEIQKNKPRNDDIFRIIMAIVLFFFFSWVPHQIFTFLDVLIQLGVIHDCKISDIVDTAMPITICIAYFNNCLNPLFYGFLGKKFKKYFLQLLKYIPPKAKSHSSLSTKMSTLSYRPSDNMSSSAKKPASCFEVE

[8] = Bioavailability in dog (dose 3.0 mg/kg p.o.); assay type: ADME, organism-based, Canis lupus familiaris; conditions: in vivo, po
[9] = biological target: T3, Type-1 angiotensin II receptor (Homo sapiens, UniProt P30556); test: biochemical
T3 sequence (P30556 whole entry): T1 sequence (P34976 whole entry) with M2I, A49V, V254I, V270I, H272R, K311R, S349T, V353A
Description: Binding affinity against AT1 receptor in human adrenal tissue

IC50 [1]: 1.7 nM
logP (physchem): 3.4
Ratio [4]: 2.1
Ratio [5]: 1.3
bioavailability [6]: 84%
IC50 [7]: 0.3 nM
bioavailability [8]: 56%
IC50 [9]: 0.9 nM
Compound: Cn1nnnc1-c1ccccc1-c1ccc(Cn2cnc3ccc(N(Cc4cccnc4)C(=O)c4ccccc4)cc3c2=O)cc1
Duration (Rattus norvegicus [2]): >3 h
Duration (Rattus norvegicus [3]): >3 h

— ChEMBL document CHEMBL1128754, “The SAR of 6-(N-alkyl-N-acyl)-2-propyl-3-[(2-tetrazol-5-yl)biphen-4-yl)methyl]-quinazolinones as balanced affinity antagonists of the human AT1 and AT2 receptors” (Bioorg Med Chem Lett, 1995)
